Several values for one entry are separate records, joined by “and”; a condition that tells them apart may be missing. Equal values may be shown once.
Test system: 454973-116-R2-J3-PDC spheroids, percent test/control viability
Assay: Anticancer human tumor 454973-116-R2-J3-PDC patient-derived pancreatic carcinoma cell line growth inhibition [CLK]
Conditions: spheroids with HUVEC and MSC; for viability, T/C: stronger effect = lower value
Description: A high-throughput screen of multi-cell type tumor spheroids was designed to identify active combinations of […] and targeted small molecules. Complex spheroids include a stromal component modeled by human endothelial cells (HUVEC) and fibroblasts modeled by human mesenchymal stem cells (MSCs). The concentration ranges selected for each drug and investigational agent were based upon clinically achievable concentrations if the clinical Cmax of the agent was known.
Compounds. The drugs and investigational agents: cirtuvivint (SM08502; NSC835563), CC-671 (NSC850746), vemurafenib (NSC761431), tapotoclax (NSC804041), sotorasib (NSC818433), adagrasib (NSC831453), MRTX-1133 (NSC836407), BAY2416964 (NSC825713), copanlisib (NSC816437), inavolisib (NSC800729), abemaciclib (NSC768073), osimertinib (NSC779217), entinostat (NSC756642), eltanexor (KPT-8602, NSC794443), venetoclax (NSC766270), ceralasertib (NSC777638), bortezomib (NSC756655), olaparib (NSC753686), talazoparib (NSC767125), alisertib (NSC759677), peposertib (NSC802822), gemcitabine (NSC613327), 5-fluorouracil (NSC19893), SN-38 (NSC673596), oxaliplatin (NSC266046), paclitaxel (NSC125973), and doxorubicin (NSC123127), were obtained from the National Cancer Institute (NCI) Developmental Therapeutics Program Chemical Repository. The FDA-approved anticancer drug set is available from the Developmental Therapeutics Program at https://dtp.cancer.gov/organization/dscb/obtaining/available plates.htm. […] The stock solutions were prepared in dimethyl sulfoxide (DMSO, Sigma-Aldrich, St. Louis, MO, cat. D2650), except for the platinum complexes which were prepared in saline (Quality Biological, Gaithersburg, MD, cat. 114-055-101), at 800-fold the tested concentration and stored at -70 degrees C prior to their use. All drugs and investigational agents were tested over a range starting from a high concentration at or near the clinical Cmax and decreasing in half-log increments. If the clinical Cmax for an agent had not been determined, the highest concentration tested was 10 microM.
Cell Culture. All cells were maintained in an incubator at 37 degrees C and 5% CO2 with 95% humidity. The PDC lines were cultured according to standard operating procedures established by the NCI PDMR. Briefly, all PDCs were thawed and cultured in Matrigel-coated flasks prepared with a working solution of 1X Ham's F-12 nutrient mix, without supplementation (Invitrogen, Waltham, MA, cat. 11765054), 100 U/mL penicillin-streptomycin (Invitrogen, cat. 15140122), and 2.5% Matrigel (Corning Inc., Corning, NY, cat. 354248) for the first three passages. The 947758-054-R-J2-PDC line was cultured in 6B/Colon 1A media, which includes advanced DMEM/F-12 (Thermo Fisher Scientific, cat. 12634028), 10 mM HEPES (Thermo Fisher Scientific, cat. 15630080), 1X GlutaMAX supplement (Thermo Fisher Scientific, cat. 35050061), 0.1 mg/mL primocin (InvivoGen, cat. ant-pm-2), 10% defined fetal bovine serum, heat inactivated (HyClone Laboratories Inc., cat. SH30070.03HI), 1.25 mM N-Acetyl-L-cysteine (Sigma-Aldrich, cat. A9165), 10 mM nicotinamide (Sigma-Aldrich, cat. N0636), 1X B-27 supplement (Thermo Fisher Scientific, cat. 17504044), 1X N-2 supplement (Thermo Fisher Scientific, cat. 17502048), and 10 microM Y-27632 dihydrochloride (Tocris Bioscience, cat. 1254). The 876862-298-R-J1-PDC was cultured in 6E media, which includes all 6B/Colon 1A media components plus 50% L-WRN conditioned media (ATCC, cat. CRL-3276), 50 ng/mL recombinant human EGF recombinant protein (hEGF; Thermo Fisher Scientific, cat. PHG0311), 10 ng/mL recombinant human fibroblast growth factor 10 (hGFG-10; PeproTech, cat. 100-26), 1 ng/mL recombinant human fibroblast growth factor 2 (hFGF-2; PeproTech, cat. 100-18B), and 1 µM prostaglandin E2 (PGE2; Tocris, cat. 2296). The 227483-062-R1-J1-PDC line was cultured in Panc media, containing all 6E components except hFGF-2, with the addition of 500 nM SB-431542 (Selleckchem, cat. S1067) and 10 nM gastrin (Tocris, cat. 3006). […]
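Also: spheroids exposed to compounds for 7 days before readout.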

In the case of CCc1c2c(nc3ccc(O)cc13)-c1cc3c(c(=O)n1C2)COC(=O)[C@]3(O)CC, the viability, T/C (compound 0.00316 µM) is reported as 39.9% and 31.5%, the viability, T/C (compound 0.01 µM) is reported as 15.9% and 14.3% and the viability, T/C (compound 0.0316 µM) is reported as 12% and 13%. For the same compound, the viability, T/C (compound 0.1 µM) was 6.22% and 7.38%, the viability, T/C (compound 0.316 µM) was 2.81% and 3.92% and the viability, T/C (compound 1 µM) was 1.02% and 3.21%. It also gave an IC50 (curve of compound) of less than 3.16 nM.

In the case of CNC(=O)c1ccc(Nc2nc(OC3CCCC3)c3c(-c4ccc5nc(C)oc5c4)c[nH]c3n2)c(OC)c1, the viability, T/C (compound 0.0316 µM) is reported as 106% [middle of 12 runs], the viability, T/C (compound 0.1 µM) is reported as 104% [middle of 12 runs] and the viability, T/C (compound 0.316 µM) is reported as 47.8% [middle of 12 runs]. For the same compound, the viability, T/C (compound 1 µM) was 30.7% [middle of 12 runs], the viability, T/C (compound 3.16 µM) was 26.1% [middle of 12 runs] and the viability, T/C (compound 10 µM) was 28.5% [middle of 11 runs]. For the same compound, the IC50 (compound alone, run of 09/19/2023) was 302 nM [middle of 12 runs].

With O=c1[nH]cc(F)c(=O)[nH]1 the viability, T/C (compound 0.0316 µM) was 115% and 108%, the viability, T/C (compound 0.1 µM) was 98.1% and 101% and the viability, T/C (compound 0.316 µM) was 95.8% and 103%. For the same compound, the viability, T/C (compound 1 µM) was 64.2% and 43.4%, the viability, T/C (compound 3.16 µM) was 30.3% and 31.5% and the viability, T/C (compound 10 µM) was 35.5% and 36.6%. For the same compound, the IC50 (curve of compound) was 1700 nM and 881 nM.

For CC1COCCN1c1cc(C2(S(C)(=N)=O)CC2)nc(-c2ccnc3[nH]ccc23)n1 (configuration not stated) + CN1CCN(c2cc(C(=O)Nc3cc4cc(-c5cnn(C)c5)ccc4cn3)ccn2)CC1, the IC50 (curve of first compound, second compound 0.0316 µM) was 7240 nM, the IC50 (curve of first compound, second compound 0.1 µM) was 4520 nM and the IC50 (curve of first compound, second compound 0.316 µM) was less than 31.6 nM. The IC50 (curve of first compound, second compound 1 µM) was less than 31.6 nM, the IC50 (curve of first compound, second compound 3.16 µM) was less than 31.6 nM and the IC50 (curve of first compound, second compound 10 µM) was less than 31.6 nM. It also gave a viability, T/C (second compound 0.0316 µM, first compound 0.0316 µM) of 97.4%, a viability, T/C (second compound 0.0316 µM, first compound 0.1 µM) of 105% and a viability, T/C (second compound 0.0316 µM, first compound 0.316 µM) of 96.2%. It also gave a viability, T/C (second compound 0.0316 µM, first compound 1 µM) of 106%, a viability, T/C (second compound 0.0316 µM, first compound 3.16 µM) of 83.3% and a viability, T/C (second compound 0.0316 µM, first compound 10 µM) of 37.1%. For the same compound, the viability, T/C (second compound 0.1 µM, first compound 0.0316 µM) was 73.4%, the viability, T/C (second compound 0.1 µM, first compound 0.1 µM) was 80.5% and the viability, T/C (second compound 0.1 µM, first compound 0.316 µM) was 91.4%. It also gave a viability, T/C (second compound 0.1 µM, first compound 1 µM) of 77.5%, a viability, T/C (second compound 0.1 µM, first compound 3.16 µM) of 62.9% and a viability, T/C (second compound 0.1 µM, first compound 10 µM) of 21.5%. It also gave a viability, T/C (second compound 0.316 µM, first compound 0.0316 µM) of 1.53%, a viability, T/C (second compound 0.316 µM, first compound 0.1 µM) of 2.23% and a viability, T/C (second compound 0.316 µM, first compound 0.316 µM) of 1.84%. The viability, T/C (second compound 0.316 µM, first compound 1 µM) was 1.74%, the viability, T/C (second compound 0.316 µM, first compound 3.16 µM) was 1.04% and the viability, T/C (second compound 0.316 µM, first compound 10 µM) was 0.46%. For the same compound, the viability, T/C (second compound 1 µM, first compound 0.0316 µM) was 0.13%, the viability, T/C (second compound 1 µM, first compound 0.1 µM) was 0.13% and the viability, T/C (second compound 1 µM, first compound 0.316 µM) was 0.16%. The viability, T/C (second compound 1 µM, first compound 1 µM) was 0.1%, the viability, T/C (second compound 1 µM, first compound 3.16 µM) was 0.11% and the viability, T/C (second compound 1 µM, first compound 10 µM) was 0.1%. For the same compound, the viability, T/C (second compound 3.16 µM, first compound 0.0316 µM) was 0.17%, the viability, T/C (second compound 3.16 µM, first compound 0.1 µM) was 0.21% and the viability, T/C (second compound 3.16 µM, first compound 0.316 µM) was 0.22%. For the same compound, the viability, T/C (second compound 3.16 µM, first compound 1 µM) was 0.2%, the viability, T/C (second compound 3.16 µM, first compound 3.16 µM) was 0.15% and the viability, T/C (second compound 3.16 µM, first compound 10 µM) was 0.21%. It also gave a viability, T/C (second compound 10 µM, first compound 0.0316 µM) of 1.56%, a viability, T/C (second compound 10 µM, first compound 0.1 µM) of 0.21% and a viability, T/C (second compound 10 µM, first compound 0.316 µM) of 0.22%. It also gave a viability, T/C (second compound 10 µM, first compound 1 µM) of 0.31%, a viability, T/C (second compound 10 µM, first compound 3.16 µM) of 0.25% and a viability, T/C (second compound 10 µM, first compound 10 µM) of 0.6%.

With C=CC(=O)Nc1cc(Nc2nccc(-c3cn(C)c4ccccc34)n2)c(OC)cc1N(C)CCN(C)C the viability, T/C (compound 0.000949 µM) was 104% and 111%, the viability, T/C (compound 0.003 µM) was 107% and 98.9% and the viability, T/C (compound 0.00949 µM) was 97.8% and 95%. The viability, T/C (compound 0.03 µM) was 105% and 108%, the viability, T/C (compound 0.0949 µM) was 115% and 111% and the viability, T/C (compound 0.3 µM) was 109% and 100%. For the same compound, the IC50 (curve of compound) was greater than 300 nM.

Nc1ccccc1NC(=O)c1ccc(CNC(=O)OCc2cccnc2)cc1 was tested, and the viability, T/C (compound 0.0316 µM) was 103% and 100%, the viability, T/C (compound 0.1 µM) was 96.6% and 102% and the viability, T/C (compound 0.316 µM) was 90.7% and 89.4%. For the same compound, the viability, T/C (compound 1 µM) was 71.8% and 70.5%, the viability, T/C (compound 3.16 µM) was 29.7% and 26.2% and the viability, T/C (compound 10 µM) was 9.11% and 5.25%. For the same compound, the IC50 (curve of compound) was 1800 nM and 1680 nM.

Reference: PubChem BioAssay AID2060618 (Molecular Pharmacology Branch, DTP, NCI, 2025)
